Test results: US20250210145A1, “METHOD FOR DETERMINING THE RESISTANCE OF A MICROORGANISM TO AN ANTIMICROBIAL AGENT” (Commissariat à l'Energie Atomique et aux Energies …, priority 2023, published 2025)

What was measured:
[1] = tested on: Staphylococcus Saprophyticus strains SS91, SS96; experiment: FTIR heavy-water labeling level (metabolism) versus antibiotic concentration, strains not used during training; format: cell-based; conditions: FIG. 5; each of strains SS91 and SS96, above a strain-specific antibiotic concentration (value not given)
Description: The x-axis corresponds to the antibiotic concentration (Gentamicin). The y-axis corresponds to a labeling level.

[2] = tested on: Escherichia coli strain ATCC35218 ("EC207"); experiment: FTIR heavy-water labeling level (metabolism) versus antibiotic concentration, strain EC207; format: cell-based; conditions: FIG. 4C, amoxicillin 1-64 μg/mL, two hours incubation, Mueller-Hinton medium with 50% v/v heavy water
Experimental: (§1) Once the LDA classifier had been parameterized, it was used in a test phase on Escherichia coli cultures.
(§2) An overnight pre-culture was performed to synchronize the metabolic states of the bacterial populations. Test samples were prepared using different concentrations of amoxicillin (64, 32, 16, 8, 4, 2 and 1 μg/mL), and a culture of each strain was prepared in 2 ml of Mueller-Hinton medium with 50% v/v heavy water and antibiotic. A control sample without antibiotic was prepared. The test samples were then incubated for two hours. After incubation, the test samples were centrifuged and re-suspended in 30 μL of water, then a 5 μl drop was placed on a calcium fluoride slide. The slide was dried by exposure to a hot, dry atmosphere. On each test sample, 64 spectra are acquired using an FTIR microscope at 15× magnification, in order to eliminate potential variations in the sample's thickness of texture.
(§3) This provided test spectra corresponding to the exposure of bacterial strains to different antibiotic concentrations. The algorithm parameterized during the training phase enabled measuring a labeling level for each sample, which is considered representative of metabolic activity.

[3] = tested on: Escherichia coli strain ATCC25922 ("EC10"); experiment: FTIR heavy-water labeling level (metabolism) versus antibiotic concentration, strain EC10; format: cell-based; conditions: FIG. 4C, amoxicillin 1-64 μg/mL, two hours incubation, Mueller-Hinton medium with 50% v/v heavy water
Experimental: as §1, §2, §3

[4] = tested on: Escherichia coli strain ATCC35218 ("EC207"); conditions: cited from earlier work
[5] = tested on: Escherichia coli strain ATCC25922 ("EC10"); conditions: cited from earlier work

Row | Molecule | labeling level as a function of antibiotic concentration [1] | resistance judged from labeling level (metabolism) [2] | concentration above which the strain is sensitive (labeling level decreases) [3] [µg/mL] | sensitivity to the antibiotic (reference strain status) [4] | sensitivity to the antibiotic (reference strain status) [5] | concentration above which growth inhibition is exhibited ([5]; reference strain ATCC25922 (EC10)) [µg/mL]
1 | Gentamicin | labeling level decreases |  |  |  |  | 
2 | CC1(C)S[C@@H]2[C@H](NC(=O)[C@H](N)c3ccc(O)cc3)C(=O)N2[C@H]1C(=O)O [amoxicillin] |  | resistant to all the antibiotic concentrations used | ~10 | resistant | sensitive | 4
